From ChEMBL document CHEMBL6134849, “A Water-Soluble Aggregation-Induced Emission Photosensitizer with Intrinsic Antibacterial Activity as an Antiplanktonic and Antibiofilm Therapeutic Agent” (J Med Chem, 2025)
Calls of active or inactive are those of the source.

Key:
Lipoteichoic acid = experiment: Displacement of BODIPY-TR Cadaverine from Staphylococcus aureus lipoteichoic acid (LTA) assessed as increase in fluorescence intensity at 10 uM incubated for 30 mins by fluorescence based plate reader analysis
Lipopolysaccharide (LPS) = experiment: Displacement of BODIPY-TR Cadaverine from Pseudomonas aeruginosa lipopolysaccharide (LPS) assessed as increase in fluorescence intensity at 10 uM incubated for 30 mins by fluorescence based plate reader analysis
[1] = Induction of type-I ROS generation in PBS assessed as increase in nonspecific ROS by measuring increase in DHR123 fluorescence intensity at 10 uM irradiated with 660 nm 60 mW/cm2 light for 15 mins by DHR123 probe based plate reader analysis; type: functional
[2] = Induction of type-II ROS generation in PBS assessed as increase in nonspecific ROS by measuring increase in DHR123 fluorescence intensity at 10 uM irradiated with 660 nm 60 mW/cm2 light for 15 mins by DHR123 probe based plate reader analysis; type: functional
[3] = Induction of type-I ROS generation in PBS assessed as increase in hydroxyl radical by measuring increase in HPF fluorescence intensity at 10 uM irradiated with 660 nm 60 mW/cm2 light for 15 mins by HPF probe based plate reader analysis; type: functional
[4] = Induction of […] ROS generation in PBS assessed as increase in hydroxyl radical by measuring increase in HPF fluorescence intensity at 10 uM irradiated with 660 nm 60 mW/cm2 light for 15 mins by HPF probe based plate reader analysis; type: functional
[5] = Induction of type-I ROS generation in PBS assessed as increase in singlet oxygen by measuring increase in SOSG fluorescence intensity at 10 uM irradiated with 660 nm 60 mW/cm2 light for 15 mins by SOSG probe based plate reader analysis; type: functional
[6] = Induction of type-II ROS generation in PBS assessed as increase in singlet oxygen by measuring increase in SOSG fluorescence intensity at 10 uM irradiated with 660 nm 60 mW/cm2 light for 15 mins by SOSG probe based plate reader analysis; type: functional

Measured: Activity

CC[n+]1c(/C=C/c2ccc(-c3ccc(N(c4ccc(OCCC[N+](C)(C)C)cc4)c4ccc(OCCC[N+](C)(C)C)cc4)cc3)s2)sc2ccccc21
active: all assays above
